From DBAASP
In brackets after ≈: the same amount, converted by molar mass.

Assays:
Assay in all cases: ≥ marks a high value that may be exact or a test limit, other limits are often not marked, values filed in µg/mL are converted to µM
[1] = test system: Candida albicans ATCC 2002
[2] = test system: Escherichia coli ATCC 25922
[3] = test system: Pseudomonas aeruginosa CMCCB 10104
[4] = test system: Staphylococcus aureus ATCC 25923
[5] = test system: Acinetobacter baumannii ATCC 19606
[6] = test system: Bacillus subtilis ATCC 23857
[7] = test system: Enterococcus faecalis ATCC 29212
[8] = test system: Klebsiella pneumoniae ATCC 700603
[9] = test system: Pseudomonas aeruginosa ATCC 27853
[10] = test system: Staphylococcus epidermidis ATCC 12228
[11] = test system: Pseudomonas aeruginosa ATCC 9027
[12] = test system: Staphylococcus aureus ATCC 6538

MIC [1]	MIC [2]	MIC [3]	MIC [4]	MIC [5]	MIC [6]	MIC [7]	MIC [8]	MIC [9]	MIC [10]	MIC [11]	MIC [12]	Compound
9.59 µM (≈ 20.1 µg/mL)	19.2 µM (≈ 40.2 µg/mL)	19.2 µM (≈ 40.2 µg/mL)	9.59 µM (≈ 20.1 µg/mL)	–	–	–	–	–	–	–	–	CC[C@H](C)[C@H](NC(=O)[C@H](CC(C)C)NC(=O)[C@@H](NC(=O)[C@H](Cc1ccccc1)NC(=O)[C@H](CC(C)C)NC(=O)CN)[C@@H](C)O)C(=O)N[C@@H](CCCCN)C(=O)NCC(=O)N[C@@H](C)C(=O)N[C@@H](Cc1ccc(O)cc1)C(=O)N[C@@H](CCCCN)C(=O)N[C@@H](CC(C)C)C(=O)N[C@@H](CC(=O)O)C(=O)N[C@@H](C)C(=O)N1CCC[C@H]1C(=O)N[C@H](C(=O)N[C@H](C(=O)N[C@@H](C)C(=O)N[C@@H](CS)C(=O)N[C@@H](CC(N)=O)C(=O)O)C(C)C)[C@@H](C)O [GLFTLIKGAYKLDAPTVACN]
3.9 µM (≈ 13.1 µg/mL)	3.9 µM (≈ 13.1 µg/mL)	3.9 µM (≈ 13.1 µg/mL)	3.9 µM (≈ 13.1 µg/mL)	–	–	–	–	–	–	–	–	CC[C@H](C)[C@H](NC(=O)[C@H](C)NC(=O)[C@H](CC(C)C)NC(=O)[C@H](CC(N)=O)NC(=O)[C@H](CCCCN)NC(=O)[C@H](CC(C)C)NC(=O)[C@@H](NC(=O)[C@H](CC(=O)O)NC(=O)[C@H](CC(C)C)NC(=O)[C@H](Cc1ccccc1)NC(=O)[C@@H](N)CO)[C@@H](C)O)C(=O)N[C@@H](CO)C(=O)N[C@@H](C)C(=O)N[C@@H](C)C(=O)N[C@@H](CCCCN)C(=O)NCC(=O)N[C@@H](C)C(=O)NCC(=O)N[C@@H](CCC(N)=O)C(=O)N[C@@H](CO)C(=O)N[C@H](C(=O)N[C@@H](CC(C)C)C(=O)N[C@@H](CO)C(=O)N[C@H](C(=O)N[C@@H](CC(C)C)C(=O)N[C@@H](CO)C(=O)N[C@H]1CSSC[C@@H](C(=O)O)NC(=O)[C@H]([C@@H](C)O)NC(=O)[C@H](CCCCN)NC(=O)[C@H](CO)NC(=O)[C@H](CC(C)C)NC(=O)[C@H](CCCCN)NC1=O)[C@@H](C)O)C(C)C [SFLDTLKNLAISAAKGAGQSVLSTLSCKLSKTC]
9.28 µM (≈ 30.6 µg/mL)	9.28 µM (≈ 30.6 µg/mL)	9.28 µM (≈ 30.6 µg/mL)	9.28 µM (≈ 30.6 µg/mL)	–	–	–	–	–	–	–	–	CC[C@H](C)[C@H](NC(=O)CNC(=O)[C@H](CC(=O)O)NC(=O)[C@H](CC(C)C)NC(=O)[C@H](CC(C)C)NC(=O)CN)C(=O)N[C@@H](CC(C)C)C(=O)N[C@@H](CC(N)=O)C(=O)N[C@@H](C)C(=O)N[C@@H](CC(N)=O)C(=O)N[C@@H](Cc1ccccc1)C(=O)N[C@@H](CC(N)=O)C(=O)N[C@@H](C)C(=O)N[C@@H](C)C(=O)N[C@@H](CCCCN)C(=O)N[C@@H](CO)C(=O)N[C@@H](C)C(=O)NCC(=O)N[C@H](C(=O)N[C@@H](CO)C(=O)N[C@H](C(=O)N[C@@H](CC(C)C)C(=O)N[C@@H](CC(N)=O)C(=O)N[C@@H](C)C(=O)N[C@@H](CC(C)C)C(=O)N[C@@H](CO)C(=O)N[C@H]1CSSC[C@@H](C(=O)O)NC(=O)[C@H]([C@@H](C)O)NC(=O)[C@H](CCCCN)NC(=O)[C@H](CO)NC(=O)[C@H](CC(C)C)NC(=O)[C@H](CCCCN)NC1=O)C(C)C)[C@@H](C)O [GLLDGILNANFNAAKSAGTSVLNALSCKLSKTC]

Second part, the compound before the results:

Compound	MIC [1]	MIC [2]	MIC [3]	MIC [4]	MIC [5]	MIC [6]	MIC [7]	MIC [8]	MIC [9]	MIC [10]	MIC [11]	MIC [12]
CSCC[C@H](NC(=O)[C@H](CCC(=O)O)NC(=O)[C@H](C)NC(=O)[C@H](C)NC(=O)[C@@H](NC(=O)CNC(=O)[C@H](C)NC(=O)[C@@H](NC(=O)[C@H](Cc1ccccc1)NC(=O)[C@@H]1CCCN1C(=O)[C@@H](N)CC(C)C)C(C)C)C(C)C)C(=O)N[C@@H](CCSC)C(=O)N[C@@H](CCC(N)=O)C(=O)N[C@@H](Cc1cnc[nH]1)C(=O)N[C@H](C(=O)N[C@@H](Cc1ccc(O)cc1)C(=O)N[C@H]1CSSC[C@@H](C(=O)O)NC(=O)[C@H](CCCCN)NC(=O)[C@H](CCCCN)NC(=O)[C@H](CO)NC(=O)[C@H](C)NC(=O)[C@H](C)NC1=O)C(C)C [LPFVAGVAAEMMQHVYCAASKKC]	4.32 µM (≈ 10.6 µg/mL)	2.16 µM (≈ 5.3 µg/mL)	17.3 µM (≈ 42.4 µg/mL)	4.32 µM (≈ 10.6 µg/mL)	–	–	–	–	–	–	–	–
CC[C@H](C)[C@H](NC(=O)[C@H](CCCN=C(N)N)NC(=O)[C@H](CCCCN)NC(=O)[C@H](Cc1ccccc1)NC(=O)[C@H](Cc1c[nH]c2ccccc12)NC(=O)[C@@H](N)CCCCN)C(=O)N[C@@H](CCCCN)C(=O)N[C@H](C(=O)N[C@@H](Cc1ccccc1)C(=O)N[C@@H](Cc1c[nH]c2ccccc12)C(N)=O)[C@@H](C)O [KWFKRIKTFW]	–	16 µM (≈ 23 µg/mL)	–	16 µM (≈ 23 µg/mL)	128 µM (≈ 184 µg/mL)	16 µM (≈ 23 µg/mL)	64 µM (≈ 92.1 µg/mL)	32 µM (≈ 46 µg/mL)	8 µM (≈ 11.5 µg/mL)	128 µM (≈ 184 µg/mL)	–	–
CC[C@H](C)[C@H](NC(=O)[C@H](CC(N)=O)NC(=O)[C@H](CCCCN)NC(=O)[C@H](CCCCN)NC(=O)[C@@H]1CCCN1C(=O)[C@H](Cc1ccccc1)NC(=O)[C@@H](NC(=O)[C@@H](N)Cc1ccccc1)[C@@H](C)CC)C(=O)N[C@H](C(=O)N[C@@H](CC(N)=O)C(=O)N[C@@H](CO)C(=O)N[C@@H](CC(C)C)C(=O)N[C@@H](Cc1ccccc1)C(=O)NCC(=O)N[C@@H](CCCN=C(N)N)C(=O)O)[C@@H](C)CC [FIFPKKNIINSLFGR]	8.92 µM (≈ 16 µg/mL)	> 70.2 µM	8.92 µM (≈ 16 µg/mL)	8.92 µM (≈ 16 µg/mL)	–	–	–	–	–	–	–	–
CC[C@H](C)[C@H](NC(=O)CN)C(=O)N[C@@H](CC(C)C)C(=O)N[C@@H](CCCCN)C(=O)N[C@@H](CCCCN)C(=O)N[C@H](C(=O)N[C@@H](CC(C)C)C(=O)N[C@@H](CCCCN)C(=O)N[C@@H](CCCCN)C(=O)N[C@H](C(=O)N[C@@H](CC(C)C)C(=O)N[C@@H](CCCCN)C(=O)N[C@@H](CCCCN)C(=O)N[C@@H](CC(C)C)C(N)=O)[C@@H](C)CC)[C@@H](C)CC [GILKKILKKILKKL]	–	9.3 µM (≈ 15.2 µg/mL)	–	–	–	1.6 µM (≈ 2.62 µg/mL)	–	–	–	–	5.8 µM (≈ 9.48 µg/mL)	5.2 µM (≈ 8.5 µg/mL)
CC[C@H](C)[C@H](NC(=O)[C@H](CCCCN)NC(=O)[C@@H](NC(=O)[C@@H](NC(=O)[C@H](CCCCN)NC(=O)[C@H](CCCCN)NC(=O)[C@@H](NC(=O)[C@@H](NC(=O)[C@H](CCCCN)NC(=O)[C@H](CCCCN)NC(=O)[C@@H](NC(=O)[C@@H](N)CCCCN)[C@@H](C)CC)[C@@H](C)CC)[C@@H](C)CC)[C@@H](C)CC)[C@@H](C)CC)C(N)=O [KIKKIIKKIIKI]	–	219 µM (≈ 321 µg/mL)	–	–	–	15.1 µM (≈ 22.1 µg/mL)	–	–	–	–	9 µM (≈ 13.2 µg/mL)	339 µM (≈ 497 µg/mL)
CC[C@H](C)[C@H](NC(=O)[C@H](CCCN=C(N)N)NC(=O)[C@H](CCCN=C(N)N)NC(=O)[C@H](Cc1ccccc1)NC(=O)[C@H](Cc1ccccc1)NC(=O)CN)C(=O)N[C@@H](CCCN=C(N)N)C(=O)N[C@H](C(=O)N[C@@H](Cc1ccccc1)C(=O)N[C@@H](Cc1ccccc1)C(N)=O)[C@@H](C)O [GFFRRIRTFF]	–	32 µM (≈ 43.1 µg/mL)	–	8 µM (≈ 10.8 µg/mL)	32 µM (≈ 43.1 µg/mL)	8 µM (≈ 10.8 µg/mL)	32 µM (≈ 43.1 µg/mL)	32 µM (≈ 43.1 µg/mL)	4 µM (≈ 5.38 µg/mL)	32 µM (≈ 43.1 µg/mL)	–	–
CC[C@H](C)[C@H](NC(=O)[C@H](CCCCN)NC(=O)[C@H](CCCCN)NC(=O)[C@H](C)NC(=O)[C@@H](NC(=O)[C@H](C)NC(=O)[C@H](CC(C)C)NC(=O)[C@H](CC(C)C)NC(=O)[C@H](C)NC(=O)[C@H](CCCCN)NC(=O)[C@H](C)NC(=O)[C@H](CC(N)=O)NC(=O)[C@@H](N)CC(C)C)C(C)C)C(=O)N[C@@H](CC(C)C)C(N)=O [LNAKALLAVAKKIL]	–	8 µM (≈ 11.7 µg/mL)	–	32 µM (≈ 46.9 µg/mL)	–	8 µM (≈ 11.7 µg/mL)	–	32 µM (≈ 46.9 µg/mL)	–	–	32 µM (≈ 46.9 µg/mL)	–
